The assay deals with female C57BL/6 mice. Put plainly: Bone histomorphometry of distal femur after 5 weeks of GSK126. Type of assay: in vivo, mouse. The following applies: for N.Ob/B.pm / N.Ob/T.Ar / N.Oc/B.Pm / N.Oc/T.Ar / Ob.S/BS / Oc.S/BS: mean. As to the method:
Female C57BL/6 mice (Harlan Laboratories) were maintained on a 12-hour light/12-hour dark cycle and were permitted ad libitum access to food and water. For efficacy studies, 6-week old mice received daily intraperitoneal (IP) injections of GSK126 at 15 mg/kg, 50 mg/kg, or vehicle (DMSO) in 20% Captisol adjusted to pH 4-4.5 with IN acetic acid (McCabe et al., Nature, 492:108-112 (2012)) for 5 weeks.
The dosage, delivery schedule, and administration route were similar to those described elsewhere (McCabe et al., Nature, 492:108-112 (2012)). Animals were weighed daily. To label mineralizing bone surfaces, mice received subcutaneous injections of calcein (10 mg/kg) 5 days and 24 hours before euthanasia.
The right distal femur was processed for static and dynamic histomorphometry as described elsewhere (McGee-Lawrence et al., Bone, 48:1117-1126 (2011)). Thin (5 μm) sections were stained with Von Kossa/McNeal's tetrachrome to highlight osteoblast surfaces and Goldner's trichrome to examine mineralizing surface and bone surfaces. Osteoclasts were detected using TRAP staining. Unstained sections were used for assessment of dynamic histomorphometry and bone area. Slides were digitized under 40× magnification using Mikroscan D2 digital whole slide scanner and Q-Skan software (Mikroscan Technologies). Beginning 450 μm proximal to the growth plate, mineralizing surface (MS/BS, %/day), mineral apposition rate (MAR, μm/day), bone formation rate (BFR/BV, %/day), osteoblast surface/bone surface (Ob.S/BS, %), osteoblast number/bone perimeter (N.Ob/B.Pm, #/mm), osteoclast surface/bone surface (Oc.S/BS, %), and osteoclast number/bone perimeter (N.Oc/B.Pm, #/mm) were quantified using Image J software as described elsewhere (Schneider et al., Nat. Methods, 9:671-675 (2012) and Egan et al., Histopathology, 61:1168-1173 (2012)).

The mark [1] stands for this setting: distal femoral metaphysis, 15 mg/kg.
The mark [2] stands for this setting: distal femoral metaphysis, 50 mg/kg.

With `CC[C@H](C)n1cc(C)c2c(C(=O)NCc3c(C)cc(C)[nH]c3=O)cc(-c3ccc(N4CCNCC4)nc3)cc21` [GSK126, N-[(1,2-dihydro-4,6-dimethyl-2-oxo-3-pyridinyl)methyl]-3-methyl-1-[(1S)-1-methylpropyl]-6-[6-(1-piperazinyl)-3-pyridinyl]-1H-indole-4-carboxamide], under setting [1], the N.Ob/B.pm is 0.028 #/mm, the N.Ob/T.Ar amounted to 0.109, the N.Oc/B.Pm is listed as 0.015 #/mm and the N.Oc/T.Ar turned out to be 0.042. Moreover, the Ob.S/BS under setting [1] came out at 0.354%. Besides, under setting [2], the N.Ob/B.pm is recorded as 0.040 #/mm, the N.Ob/T.Ar was 0.081, the N.Oc/B.Pm is reported as 0.018 #/mm and the N.Oc/T.Ar amounted to 0.050. The Ob.S/BS under setting [2] was determined as 0.551%. The “interlabel thickness (Ir.L.Th), mineral apposition rate (MAR) and bone formation rate (BFR)” value (dynamic histomorphometry, GSK126 50 mg/kg vs vehicle) is listed as “enhanced”. The Oc.S/BS (static histomorphometry, distal femoral metaphysis, 15 mg/kg) came out at 0.314%. For the setting “static histomorphometry, distal femoral metaphysis, 50 mg/kg”, this compound registered an Oc.S/BS of 0.240%. Also, the “osteoblast surface area per bone surface area (Ob.S/BS)” value (static histomorphometry, distal femoral metaphysis, in words (FIG. 19C)) was “increase”. Besides, the “number of osteoblasts per bone perimeter (N. Ob./B.Pm)” value (static histomorphometry, distal femoral metaphysis, in words (FIG. 19D)) is “increase”.

The values are drawn from patent publication US20180133211A1, “METHODS AND MATERIALS FOR PROMOTING BONE FORMATION” (Mayo Foundation for Medical Education and Research, priority 2015, published 2018).
